SMILES strings stand for the structures. Counter-ions that a name gives are not always drawn. Like-named read-outs stand apart in the source and are kept apart here.

Assay [1] has as its system choline oxidase derived from C. murisepticum KY 3505. Nature of the assay: Substrate specificity of choline oxidase. In kind it is biochemical, Corynebacterium murisepticum. Particulars: enzyme 0.4 U/ml; activity on choline chloride defined as 100. As to the method: (§1) The activity of choline oxidase in the experimental examples and the following examples is determined by oxidizing choline with choline oxidase to produce hydrogen peroxide, decomposing hydrogen peroxide with peroxidase in the presence of phenol and 4-aminoantipyrine to produce the pigment, and measuring the absorbancy of the pigment solution as described below.
(§2) Choline oxidase is dissolved in 0.05 mol/L Tris buffer having a pH of 8.0 to make up a specific concentration (1.5 and 0.4 U/ml respectively in case of choline oxidase derived from KY 4319 and KY 3505 strains). The solutions are then subjected to the same determination of choline oxidase as described above except that the various substances other than choline chloride shown in Table 3 are used as a substrate. The relative activities on the various substrates are calculated by defining the activity on choline chloride as 100.

Assay [2] deals with choline oxidase derived from B. album KY 4319. Nature of the assay: Substrate specificity of choline oxidase. In kind it is biochemical, Brevibacterium album. To be noted: enzyme 1.5 U/ml; activity on choline chloride defined as 100. As to the method:
as §1, §2

For assay [3], the system named is choline oxidase derived from Brevibacterium album KY 4319. Particulars: for oxygen consumed per 1 mol of substrate (concluded stoichiometry): conclusion from Table 3; for Amount of O2 uptake [B]: 37° C., pH 8.0.
Experimental: (§3) In the following Experiment (1) and (2), choline oxidase, derived from Brevibacterium album KY 4319 is used.
Then, 0.5 ml of 0.05 mol/L Tris buffer (pH 8.0) containing 1.5 U/ml of choline oxidase is put in the side arm, and reaction is carried out at 37° C. During the reaction, the amount of oxygen uptake (volume) is measured at regular intervals of time. The reaction is completed in 30-40 minutes.
Assay [4] has the same test system. Particulars: for hydrogen peroxide produced from 1 mol of substrate (concluded stoichiometry): conclusion from Table 4; for Amount of hydrogen peroxide [B']: 37° C., 20 minutes, pH 8.0.
Experimental: as §3
In this experiment, 0.05 mol/L Tris buffer (pH 8.0) containing 0.001 mol/L of 4-aminoantripyrine, 0.001 mol/L of phenol and 50 mg/L of peroxidase is used as a color-forming liquid. […] The absorbancy of the reaction mixture is measured at 500 nm. The amount of hydrogen peroxide produced is calculated based on the measured value. The ratio of the amount of the hydrogen peroxide produced (μmol) to the amount of the charged substrate (μmol) is shown in Table 4.
The subject of assay [5] is Brevibacterium album KY 4319.
Experimental: A 0.05 mol/L Tris buffer solution (pH 8.0) containing 0.01 mol/L of 4-aminoantipyrine, 0.01 mol/L of phenol and 5000 U/L of peroxidase is prepared and used as color-forming liquid. […] Reaction is carried out at 37° C. for 20 minutes and then the absorbancy of the solution is measured at 500 nm. The amount of the reacted choline chloride is calculated based on the measured value. The enzyme activity is expressed by "U" which is defined as the amount of enzyme which will decompose 1 μmole of choline in 1 minute under the above-described conditions.
For assay [6], the system named is Corynebacterium murisepticum KY 3505. As for the experimental part:
as §1
In this experimental example, Brevibacterium album KY 4319 and Corynebacterium murisepticum KY 3505 are used. 10 ml portions of a nutrient medium having the following composition are poured into 70 ml-test tubes and sterilized at 120° C. for 15 minutes.
One loopful of the above strains are separately inoculated into the medium in the test tubes, and culturing is carried out with shaking at 30° C. for […].
After the completion of culturing, each of the culture liquors is subjected to centrifugation. The resultant microbial cells are suspended in 10 ml of 0.05 mol/L Tris buffer having a pH of 8.0 and disrupted by ultrasonic generator. The resultant mixture is subjected to centrifugation and choline oxidase activity of the supernatant is measured.

For assay [7], the system named is choline oxidase derived from B. album KY 4319.
Experimental: An approximately 4 ml-reactor for measurement of oxygen absorption is kept at 37° C. and an oxygen electrode is inserted therein. Choline oxidase is dissolved in 0.05 mol/L Tris buffer having a pH of 8.0 to make up a concentration of 0.8 U/ml. […] The concentration of oxygen dissolved in the solution is recorded continuously by recorder while stirring the solution. Decrease in oxygen concentration for 5 minutes after the start of the reaction is calculated.
The same procedure as above is repeated except that sodium azide is not added (control).
Where [8] appears, read: choline chloride 0.5 g/dl (36 mmol/L) in medium.
The mark [9] stands for this setting: choline chloride 1.0 g/dl (72 mmol/L) in medium.
Where [10] appears, read: choline chloride 5.0 g/dl (360 mmol/L) in medium.
[11] abbreviates: choline chloride 10.0 g/dl (720 mmol/L) in medium.

Consider `CN(C)CCO` [2-dimethylaminoethanol, 2-dimethyl-aminoethanol], for which the entries for the “Substrate specificity (relative activity %)” value in assay [1] and in assay [2] were 8.5% and 7.3%, respectively.

Regarding `CNCCO` [2-methylaminoethanol, 2-methyl-aminoethanol], the “Substrate specificity (relative activity %)” value in assay [1] amounted to 0%; in assay [2], 1.0%.

For `CC(=O)OCC[N+](C)(C)C.[Cl-]` [acetylcholine chloride], the “Substrate specificity (relative activity %)” value in assay [1] and in assay [2] was 0% each time.

Take `C[N+](C)(C)CC=O` [betaine aldehyde]: the “oxygen consumed per 1 mol of substrate (concluded stoichiometry)” value in assay [3] is given as 1 mol. Also, the figures for the “[B]/[A] (O2 uptake / charged substrate)” value in assay [3] (substrate 1.25 μmol), in assay [3] (substrate 2.50 μmol) and in assay [3] (substrate 5.00 μmol) were 0.88, 0.92 and 0.93, respectively. The results for the “Amount of O2 uptake [B]” value in assay [3] (substrate 1.25 μmol), in assay [3] (substrate 2.50 μmol) and in assay [3] (substrate 5.00 μmol) were 1.10 µmol, 2.31 µmol and 4.67 µmol, respectively. The “hydrogen peroxide produced from 1 mol of substrate (concluded stoichiometry)” value in assay [4] is recorded as 1 mol. The “[B']/[A'] (hydrogen peroxide produced / charged substrate)” value in assay [4] (substrate 0.045 μmol) came to 0.78; in assay [4] (substrate 0.090 μmol) it was 0.93; in assay [4] (substrate 0.180 μmol), 0.93. Also, the figures for the “Amount of hydrogen peroxide [B']” value in assay [4] (substrate 0.045 μmol), in assay [4] (substrate 0.090 μmol) and in assay [4] (substrate 0.180 μmol) were 0.035 µmol, 0.084 µmol and 0.168 µmol, respectively.

Regarding `C[N+](C)(C)CC(=O)O` [betaine], the “Substrate specificity (relative activity %)” value in assay [1] and in assay [2] was 0% each time.

Regarding `C[N+](C)(C)CCO.[Cl-]` [choline chloride], the “Substrate specificity (relative activity %)” value in assay [1] and in assay [2] was 100% each time. Besides, the “oxygen consumed per 1 mol of substrate (concluded stoichiometry)” value in assay [3] turned out to be 2 mol. The “[B]/[A] (O2 uptake / charged substrate)” value is recorded as 1.87 in assay [3] (substrate 1.25 μmol), 1.89 in assay [3] (substrate 2.50 μmol) and 1.91 in assay [3] (substrate 5.00 μmol). The “Amount of O2 uptake [B]” value turned out to be 2.34 µmol in assay [3] (substrate 1.25 μmol), 4.72 µmol in assay [3] (substrate 2.50 μmol) and 9.56 µmol in assay [3] (substrate 5.00 μmol). For the same molecule, the “amount of oxygen consumed by 1 mol of substrate” value in assay [3] (summary of Table 3) fell in the range of 1.87 to 1.91 mol. For the same molecule, the “hydrogen peroxide produced from 1 mol of substrate (concluded stoichiometry)” value in assay [4] came out at 2 mol. For the same molecule, the “[B']/[A'] (hydrogen peroxide produced / charged substrate)” value in assay [4] (substrate 0.045 μmol) is 1.80; in assay [4] (substrate 0.090 μmol), 1.67; in assay [4] (substrate 0.180 μmol) it was 1.72. The figures for the “Amount of hydrogen peroxide [B']” value in assay [4] (substrate 0.045 μmol), in assay [4] (substrate 0.090 μmol) and in assay [4] (substrate 0.180 μmol) were 0.081 µmol, 0.150 µmol and 0.310 µmol, respectively. Further, the “amount of hydrogen peroxide produced from 1 mol of substrate” value in assay [4] (summary of Table 4) lay in the range of 1.67 to 1.80 mol. Further, the “Activity of choline oxidase” value in assay [5] (choline chloride 0.1 g/dl (7.2 mmol/L) in medium, 30° C. culture, supernatant of disrupted cells) turned out to be 13.0 U/dl; in assay [5] (setting [8]) it was 35.4 U/dl; in assay [5] (setting [9]), 32.7 U/dl; in assay [5] (setting [10]), 23.4 U/dl; in assay [5] (setting [11]), 15.1 U/dl; in assay [6] (choline chloride 0.1 g/dl (7.2 mmol/L) in medium), 6.4 U/dl. The “Activity of choline oxidase” value in assay [6] (setting [8]) turned out to be 9.3 U/dl; in assay [6] (setting [9]), 17.1 U/dl; in assay [6] (choline chloride 2.0 g/dl (144 mmol/L) in medium), 17.5 U/dl; in assay [6] (setting [10]), 12.8 U/dl; in assay [6] (setting [11]), 6.7 U/dl.

With `NCCO` [ethanolamine hydrochloride], the “Substrate specificity (relative activity %)” value in assay [1] and in assay [2] was 0% throughout.

`NCC(=O)O` [glycine]: the “Substrate specificity (relative activity %)” value in assay [1] and in assay [2] was 0% each time.

As to `CNCC(=O)O` [sarcosine], the “Substrate specificity (relative activity %)” value in assay [1] and in assay [2] was 0% throughout.

With `[N-]=[N+]=[N-]` [sodium azide], the Inhibitor result in assay [7] is recorded as “Inhibitor”. In addition, in assay [7] (1.7×10^-3 mol/L sodium azide, 37° C., pH 8.0, 5 minutes), the “enzyme activity inhibited, compared with the control” value was 44.4%.

These data come from patent US4245050A, “Process for the preparation of choline oxidase by fermentation” (Kyowa Hakko Kogyo Co., Ltd., priority 1976, dated 1981).
